{"source": "paper PMC5218480", "about": "(PLoS ONE, 2017)", "tested_on": "MV-4-11 cells", "assay": "Gene expression microarray analysis (Affymetrix PrimeView) and GSEA", "type": "cell-based, human", "parameters": "RFU PODN (11730768_x_at) / Fold change /veh PODN (11730768_x_at) / RFU LINC00158 (11744669_a_at) / Fold change /veh LINC00158 (11744669_a_at) / RFU DUSP10 (11751237_a_at) / Fold change /veh DUSP10 (11751237_a_at) / RFU ID3 (11757404_x_at) / Fold change /veh ID3 (11757404_x_at) / RFU PLEKHG5 (11737974_s_at) / Fold change /veh PLEKHG5 (11737974_s_at) / RFU LRRC4B (11730491_at) / Fold change /veh LRRC4B (11730491_at) / RFU GIMAP4 (11747438_a_at) / Fold change /veh GIMAP4 (11747438_a_at) / RFU KRT8 (11758183_x_at) / Fold change /veh KRT8 (11758183_x_at) / RFU CNN1 (11734310_a_at) / Fold change /veh CNN1 (11734310_a_at) / RFU VPS37D (11726825_at) / Fold change /veh VPS37D (11726825_at) / RFU C10orf10 (11716522_x_at) / Fold change /veh C10orf10 (11716522_x_at) / RFU KIR2DL2 /// KIR2DL4 /// KIR2DL5A /// KIR2DL5B /// KIR2DS1 /// KIR2DS2 /// KIR2DS3 /// KIR2DS4 /// KIR3DL3 /// KIR3DL3 /// KIR3DS1 (11738374_at) / Fold change /veh KIR2DL2 /// KIR2DL4 /// KIR2DL5A /// KIR2DL5B /// KIR2DS1 /// KIR2DS2 /// KIR2DS3 /// KIR2DS4 /// KIR3DL3 /// KIR3DL3 /// KIR3DS1 (11738374_at) / RFU C1QL1 (11718748_at) / Fold change /veh C1QL1 (11718748_at) / RFU TMPRSS4 (11747572_a_at) / Fold change /veh TMPRSS4 (11747572_a_at) / RFU HAMP (11756126_x_at) / Fold change /veh HAMP (11756126_x_at) / RFU RNFT2 (11725882_a_at) / Fold change /veh RNFT2 (11725882_a_at) / RFU NR4A2 (11747474_a_at) / Fold change /veh NR4A2 (11747474_a_at) / RFU ABCC12 (11746883_a_at) / Fold change /veh ABCC12 (11746883_a_at) / RFU TMEM136 (11760407_x_at) / Fold change /veh TMEM136 (11760407_x_at) / RFU CLDN22 /// WWC2 (11732394_at) / Fold change /veh CLDN22 /// WWC2 (11732394_at) / RFU HLA-DPB1 (11760878_x_at) / Fold change /veh HLA-DPB1 (11760878_x_at) / RFU SPINT1 (11716480_a_at) / Fold change /veh SPINT1 (11716480_a_at) / RFU GAP43 (11754022_s_at) / Fold change /veh GAP43 (11754022_s_at) / RFU A4GNT (11735810_at) / Fold change /veh A4GNT (11735810_at) / RFU PRB3 (11715151_x_at) / Fold change /veh PRB3 (11715151_x_at) / RFU TUBB4B (11761932_at) / Fold change /veh TUBB4B (11761932_at) / RFU CAPN14 (11732068_a_at) / Fold change /veh CAPN14 (11732068_a_at) / RFU TMCC2 (11721928_a_at) / Fold change /veh TMCC2 (11721928_a_at) / RFU IRGQ (11745062_a_at) / Fold change /veh IRGQ (11745062_a_at) / RFU FAM174B (11720279_a_at) / Fold change /veh FAM174B (11720279_a_at) / RFU TMPRSS4 (11748680_a_at) / Fold change /veh TMPRSS4 (11748680_a_at) / RFU FAM212B (11763350_a_at) / Fold change /veh FAM212B (11763350_a_at) / RFU PLEKHG5 (11743358_a_at) / Fold change /veh PLEKHG5 (11743358_a_at) / RFU ZSCAN30 (11745921_a_at) / Fold change /veh ZSCAN30 (11745921_a_at) / RFU CMKLR1 (11741424_a_at) / Fold change /veh CMKLR1 (11741424_a_at) / RFU LOC101060620 /// MAPK8IP1 (11723275_at) / Fold change /veh LOC101060620 /// MAPK8IP1 (11723275_at) / RFU SPTSSB (11747773_x_at) / Fold change /veh SPTSSB (11747773_x_at) / RFU PRSS12 (11739890_at) / Fold change /veh PRSS12 (11739890_at) / RFU BIN1 (11741810_x_at) / Fold change /veh BIN1 (11741810_x_at) / RFU WNT11 (11732464_a_at) / Fold change /veh WNT11 (11732464_a_at) / RFU C10orf10 (11716521_a_at) / Fold change /veh C10orf10 (11716521_a_at) / RFU C5orf56 (11738089_at) / Fold change /veh C5orf56 (11738089_at) / RFU CYB561 (11721691_x_at) / Fold change /veh CYB561 (11721691_x_at) / RFU ANKRD19P (11752326_a_at) / Fold change /veh ANKRD19P (11752326_a_at) / RFU OR2T12 /// OR2T33 /// OR2T8 (11738714_s_at) / Fold change /veh OR2T12 /// OR2T33 /// OR2T8 (11738714_s_at) / RFU VCAN (11748164_a_at) / Fold change /veh VCAN (11748164_a_at) / RFU JSRP1 (11732532_at) / Fold change /veh JSRP1 (11732532_at) / RFU KRTAP10-11 (11738290_x_at) / Fold change /veh KRTAP10-11 (11738290_x_at) / RFU MYO3A (11730013_a_at) / Fold change /veh MYO3A (11730013_a_at) / RFU EBF3 (11725865_a_at) / Fold change /veh EBF3 (11725865_a_at) / RFU CAMK2N1 (11719241_x_at) / Fold change /veh CAMK2N1 (11719241_x_at) / RFU C5orf56 (11738088_a_at) / Fold change /veh C5orf56 (11738088_a_at) / RFU OLFML3 (11715873_a_at) / Fold change /veh OLFML3 (11715873_a_at) / RFU LOC100653217 /// NTM (11731650_a_at) / Fold change /veh LOC100653217 /// NTM (11731650_a_at) / RFU MAPK11 (11762145_a_at) / Fold change /veh MAPK11 (11762145_a_at) / RFU FIZ1 (11724087_x_at) / Fold change /veh FIZ1 (11724087_x_at) / RFU OASL (11726364_x_at) / Fold change /veh OASL (11726364_x_at) / RFU SOX15 (11748057_x_at) / Fold change /veh SOX15 (11748057_x_at) / RFU CD79A (11719716_a_at) / Fold change /veh CD79A (11719716_a_at) / RFU HIST1H1D (11736915_at) / Fold change /veh HIST1H1D (11736915_at) / RFU CASKIN2 (11723855_a_at) / Fold change /veh CASKIN2 (11723855_a_at) / RFU LOC730098 (11760151_x_at) / Fold change /veh LOC730098 (11760151_x_at) / RFU OR4N2 (11742367_at) / Fold change /veh OR4N2 (11742367_at) / RFU PRRT2 (11749266_a_at) / Fold change /veh PRRT2 (11749266_a_at) / RFU SNX32 (11753110_a_at) / Fold change /veh SNX32 (11753110_a_at) / RFU CDHR5 (11726645_a_at) / Fold change /veh CDHR5 (11726645_a_at) / RFU RCAN1 (11760418_a_at) / Fold change /veh RCAN1 (11760418_a_at) / RFU FAM167A (11723789_a_at) / Fold change /veh FAM167A (11723789_a_at) / RFU FAM26E (11764081_at) / Fold change /veh FAM26E (11764081_at) / RFU ISYNA1 (11749810_s_at) / Fold change /veh ISYNA1 (11749810_s_at) / RFU ACY1 (11761880_at) / Fold change /veh ACY1 (11761880_at) / RFU 11764098_at / Fold change /veh 11764098_at / RFU SAMD14 (11745864_x_at) / Fold change /veh SAMD14 (11745864_x_at) / RFU NPB (11741838_a_at) / Fold change /veh NPB (11741838_a_at) / RFU TMPRSS6 (11731388_a_at) / Fold change /veh TMPRSS6 (11731388_a_at) / RFU KRTAP10-2 (11738614_at) / Fold change /veh KRTAP10-2 (11738614_at) / RFU ARHGAP8 /// PRR5-ARHGAP8 (11727945_x_at) / Fold change /veh ARHGAP8 /// PRR5-ARHGAP8 (11727945_x_at) / RFU KRTAP5-7 /// NADSYN1 (11734609_at) / Fold change /veh KRTAP5-7 /// NADSYN1 (11734609_at) / RFU RASL12 (11751679_a_at) / Fold change /veh RASL12 (11751679_a_at) / RFU CDKN2B (11736163_a_at) / Fold change /veh CDKN2B (11736163_a_at) / RFU PRF1 (11729649_at) / Fold change /veh PRF1 (11729649_at) / RFU, ZNF638 /// ZNF638-IT1 / Fold change vs veh, ZNF638 /// ZNF638-IT1 / RFU, PANK3 / Fold change vs veh, PANK3 / RFU, SH3YL1 / Fold change vs veh, SH3YL1 / RFU, ZEB2 / Fold change vs veh, ZEB2 / RFU, NRIP1 / Fold change vs veh, NRIP1 / RFU, PTTG1IP / Fold change vs veh, PTTG1IP / RFU, CAPN2 / Fold change vs veh, CAPN2 / RFU, MED14 / Fold change vs veh, MED14 / RFU, SNORA58 / Fold change vs veh, SNORA58 / RFU, C1orf63 / Fold change vs veh, C1orf63 / RFU, LRRFIP1 / Fold change vs veh, LRRFIP1 / RFU, NDUFAF7 / Fold change vs veh, NDUFAF7 / RFU, SLC12A2 / Fold change vs veh, SLC12A2 / RFU, IBTK / Fold change vs veh, IBTK / RFU, ESF1 / Fold change vs veh, ESF1 / Fold change vs veh, TMEM50B / RFU, TAOK1 / Fold change vs veh, TAOK1 / RFU, ACBD3 / Fold change vs veh, ACBD3 / RFU, TMA16 / Fold change vs veh, TMA16 / RFU, RWDD3 / Fold change vs veh, RWDD3 / RFU, BCAT1 / Fold change vs veh, BCAT1 / RFU, EDEM3 / Fold change vs veh, EDEM3 / RFU, TMEM33 / Fold change vs veh, TMEM33 / RFU, WDR75 / Fold change vs veh, WDR75 / RFU, AHCTF1 / Fold change vs veh, AHCTF1 / RFU, TFRC / Fold change vs veh, TFRC / RFU, ZDHHC17 / Fold change vs veh, ZDHHC17 / RFU, NOM1 / Fold change vs veh, NOM1 / RFU, ARL8B / Fold change vs veh, ARL8B / RFU, ZBTB11 / Fold change vs veh, ZBTB11 / RFU, TAMM41 / Fold change vs veh, TAMM41 / RFU, KIAA1704 /// LOC100996395 / Fold change vs veh, KIAA1704 /// LOC100996395 / RFU, ING1 / Fold change vs veh, ING1 / RFU, TRMT61B / Fold change vs veh, TRMT61B / RFU, FUBP3 / Fold change vs veh, FUBP3 / RFU, TP53 / Fold change vs veh, TP53 / RFU, TNKS2 / Fold change vs veh, TNKS2 / RFU, ZFP14 / Fold change vs veh, ZFP14 / RFU, ACTR2 / Fold change vs veh, ACTR2 / RFU, PPP3R1 / Fold change vs veh, PPP3R1 / RFU, PIK3R1 / Fold change vs veh, PIK3R1 / RFU, HNRNPA1 / Fold change vs veh, HNRNPA1 / RFU, RNF170 / Fold change vs veh, RNF170 / RFU, ZNF28 / Fold change vs veh, ZNF28 / RFU, RNGTT / Fold change vs veh, RNGTT / RFU, OGT / Fold change vs veh, OGT / RFU, BRD1 / Fold change vs veh, BRD1 / RFU, MARS / Fold change vs veh, MARS / RFU, ZNF655 / Fold change vs veh, ZNF655 / RFU, FAHD1 / Fold change vs veh, FAHD1 / RFU, BDP1 / Fold change vs veh, BDP1 / RFU, LRRCC1 / Fold change vs veh, LRRCC1 / RFU, ARID1A / Fold change vs veh, ARID1A / RFU, ZNF146 / Fold change vs veh, ZNF146 / RFU, ZNF330 / Fold change vs veh, ZNF330 / RFU, GPN3 / Fold change vs veh, GPN3 / RFU, C9orf123 / Fold change vs veh, C9orf123 / RFU, N4BP2L2 / Fold change vs veh, N4BP2L2 / RFU, ARFIP1 / Fold change vs veh, ARFIP1 / RFU, FAM179B / Fold change vs veh, FAM179B / RFU, BCL10 / Fold change vs veh, BCL10 / RFU, UHRF1BP1L / Fold change vs veh, UHRF1BP1L / RFU, BET1 / Fold change vs veh, BET1 / RFU, CNOT2 / Fold change vs veh, CNOT2 / RFU, ZNF268 / Fold change vs veh, ZNF268 / Fold change vs veh, ZNF507 / RFU, DGCR2 / Fold change vs veh, DGCR2 / RFU, WDSUB1 / Fold change vs veh, WDSUB1 / Fold change vs veh, HSP90B1 /// MIR3652 / RFU, ADSS / Fold change vs veh, ADSS / RFU, GK / Fold change vs veh, GK / RFU, ZNF148 / Fold change vs veh, ZNF148 / RFU, TAF9 / Fold change vs veh, TAF9 / RFU, SLC1A5 / Fold change vs veh, SLC1A5 / RFU, SLMO2 / Fold change vs veh, SLMO2 / RFU, ABCC4 / Fold change vs veh, ABCC4 / RFU, LOC101060439 /// RAP1B / Fold change vs veh, LOC101060439 /// RAP1B / RFU, RFX7 / Fold change vs veh, RFX7 / RFU, GTPBP10 / Fold change vs veh, GTPBP10 / RFU, CNEP1R1 / Fold change vs veh, CNEP1R1 / RFU, BIVM-ERCC5 /// ERCC5 / Fold change vs veh, BIVM-ERCC5 /// ERCC5 / RFU, ILF3 / Fold change vs veh, ILF3 / RFU 11762660_at / Fold change /veh 11762660_at / RFU VCAN (11757783_s_at) / Fold change /veh VCAN (11757783_s_at) / RFU DDX43 (11728927_at) / Fold change /veh DDX43 (11728927_at) / RFU KRT8 (11758188_x_at) / Fold change /veh KRT8 (11758188_x_at) / RFU NKD1 (11759106_at) / Fold change /veh NKD1 (11759106_at) / RFU SRD5A1 (11742802_a_at) / Fold change /veh SRD5A1 (11742802_a_at) / RFU TPSAB1 /// TPSB2 (11721975_s_at) / Fold change /veh TPSAB1 /// TPSB2 (11721975_s_at) / RFU GSTM3 (11746129_a_at) / Fold change /veh GSTM3 (11746129_a_at) / RFU IL23R (11737362_x_at) / Fold change /veh IL23R (11737362_x_at) / RFU TMEM51 (11727254_a_at) / Fold change /veh TMEM51 (11727254_a_at) / RFU PIWIL2 (11732686_x_at) / Fold change /veh PIWIL2 (11732686_x_at) / RFU ORM1 (11744905_x_at) / Fold change /veh ORM1 (11744905_x_at) / RFU CCDC152 (11743942_at) / Fold change /veh CCDC152 (11743942_at) / RFU ECM1 (11717891_a_at) / Fold change /veh ECM1 (11717891_a_at) / RFU IL23R (11748794_a_at) / Fold change /veh IL23R (11748794_a_at) / RFU TNFAIP8L3 (11732012_x_at) / Fold change /veh TNFAIP8L3 (11732012_x_at) / RFU MBOAT4 (11741988_at) / Fold change /veh MBOAT4 (11741988_at) / RFU 11764193_at / Fold change /veh 11764193_at / RFU TMEM53 (11763286_at) / Fold change /veh TMEM53 (11763286_at) / RFU MAGEB2 (11727129_at) / Fold change /veh MAGEB2 (11727129_at) / RFU TMEM200A (11744735_a_at) / Fold change /veh TMEM200A (11744735_a_at) / RFU CCDC152 (11751479_a_at) / Fold change /veh CCDC152 (11751479_a_at) / RFU FAM211A (11726209_a_at) / Fold change /veh FAM211A (11726209_a_at) / RFU RGS16 (11746705_a_at) / Fold change /veh RGS16 (11746705_a_at) / RFU VCAN (11755009_s_at) / Fold change /veh VCAN (11755009_s_at) / RFU RHOB (11743442_s_at) / Fold change /veh RHOB (11743442_s_at) / RFU RGS16 (11720943_a_at) / Fold change /veh RGS16 (11720943_a_at) / RFU RGS16 (11720944_at) / Fold change /veh RGS16 (11720944_at) / RFU, VPS4B / Fold change vs veh, VPS4B / RFU, CREB1 / Fold change vs veh, CREB1 / RFU, DNAJC13 / Fold change vs veh, DNAJC13 / RFU, GNAQ / Fold change vs veh, GNAQ / RFU, CDK5R1 / Fold change vs veh, CDK5R1 / RFU, ZRANB3 / Fold change vs veh, ZRANB3 / RFU, CUL4A / Fold change vs veh, CUL4A / RFU, CCNY / Fold change vs veh, CCNY / RFU, UFL1 / Fold change vs veh, UFL1 / RFU, COG3 / Fold change vs veh, COG3 / RFU, DIAPH2 / Fold change vs veh, DIAPH2 / RFU, SKA2 / Fold change vs veh, SKA2 / RFU, AFF3 / Fold change vs veh, AFF3 / RFU, LMF1 / Fold change vs veh, LMF1 / RFU, IPO11 / Fold change vs veh, IPO11 / RFU, DFFB / Fold change vs veh, DFFB / RFU, FOXP1 / Fold change vs veh, FOXP1 / RFU, CARD8 / Fold change vs veh, CARD8 / RFU, STRN3 / Fold change vs veh, STRN3 / RFU, ADK / Fold change vs veh, ADK / RFU, RASSF2 / Fold change vs veh, RASSF2 / RFU, WIPF1 / Fold change vs veh, WIPF1 / RFU, LARP1B / Fold change vs veh, LARP1B / RFU, RASA1 / Fold change vs veh, RASA1 / RFU, RB1 / Fold change vs veh, RB1 / RFU, PPFIA1 / Fold change vs veh, PPFIA1 / RFU, MAT2A / Fold change vs veh, MAT2A / RFU, CCT5 / Fold change vs veh, CCT5 / RFU, WDR92 / Fold change vs veh, WDR92 / RFU, CUX1 / Fold change vs veh, CUX1 / RFU, TTC7A / Fold change vs veh, TTC7A / RFU, TMEM135 / Fold change vs veh, TMEM135 / RFU, DEPTOR / Fold change vs veh, DEPTOR / RFU, CPM / Fold change vs veh, CPM / RFU, DNAJB6 / Fold change vs veh, DNAJB6 / RFU, CACNA2D3 / Fold change vs veh, CACNA2D3 / RFU, DTX4 / Fold change vs veh, DTX4 / RFU, TFCP2 / Fold change vs veh, TFCP2 / RFU, GMCL1 /// GMCL1P1 / Fold change vs veh, GMCL1 /// GMCL1P1 / RFU, AEBP2 / Fold change vs veh, AEBP2 / RFU, SNHG1 /// SNORD22 /// SNORD25 /// SNORD26 /// SNORD27 /// SNORD28 /// SNORD29 /// SNORD31 / Fold change vs veh, SNHG1 /// SNORD22 /// SNORD25 /// SNORD26 /// SNORD27 /// SNORD28 /// SNORD29 /// SNORD31 / Fold change (Aza/veh), C12orf56 (ProbeSet 11735607_a_at) / Fold change (ACY-1035/veh), C12orf56 (ProbeSet 11735607_a_at) / Fold change (Aza/veh), FGFR1OP (ProbeSet 11751329_s_at) / Fold change (ACY-1035/veh), FGFR1OP (ProbeSet 11751329_s_at) / Fold change (Aza/veh), VPS36 (ProbeSet 11739960_a_at) / Fold change (ACY-1035/veh), VPS36 (ProbeSet 11739960_a_at) / RFU SYPL1 (11715823_x_at) / Fold change /veh SYPL1 (11715823_x_at) / RFU IGFBP7 (11715501_s_at) / Fold change /veh IGFBP7 (11715501_s_at) / RFU REEP3 (11722064_at) / Fold change /veh REEP3 (11722064_at) / RFU IGLL1 (11728026_x_at) / Fold change /veh IGLL1 (11728026_x_at): dose or concentration left out as unconfirmed", "details": "ProbeSet 11760938_a_at; LIST D", "data": [{"smiles": "Nc1ncn([C@@H]2O[C@H](CO)[C@@H](O)[C@H]2O)c(=O)n1", "note": "[azacitidine]", "values": [{"measurement": "Fold change vs veh, MAT2A", "value": 0.66}]}]}
